Entries after “also recorded” stand apart in the source; their conditions may differ.
Columns and labels:
[1] = system: α-tubulin deacetylation; assay: acetylated α-tubulin in cells (AcTubulin cytoblot, immunofluorescence, Western blot); assay type: cell-based, human; settings: A549 (also BS-C-1) cells, tubacin/JCWII114, niltubacin/JCWII153 2 μM, TSA 100 nM-4 μM, library ~2-5 μM, 18 h
Protocol: (§1) A549 cells were seeded at a density of 4,000 cells/50 μl in DMEM+ in white tissue culture-treated 384-well plates (Nalge Nunc) using a Multidrop 384 liquid dispenser (Labsystems). Library small molecules were pinned twice (100-150 nl/pin) from ˜1 mM stock solutions (DMSO) and incubated for 18 hours. For the ITSA1+AcTubulin assay, ITSA1 (50 μM) was added four hours after pin-transfer of library molecules. Media was aspirated with a 16-channel wand. For the acetylated α-tubulin cytoblot (AcTubulin), 40 μl/well of fixation solution (3.7% formaldehyde (1:10 from 37% stock) in Tris-buffered saline (TBS, 0.15 M NaCl, 0.02 M Tris-Cl, pH 7.4) was added and plates incubated for twenty minutes at room temperature. After aspiration, 30 μl 100% methanol (−20° C.) was added and incubated for five minutes at room temperature. After aspirating and washing three times with 90 μl of antibody dilution buffer (ADB, TBS/2% bovine serum albumin, 0.1% TritonX-100) the wells were blocked for twenty minutes in ADB. After aspirating, 20 μl/well of ADB containing anti-acetylated α-tubulin antibody (mouse; 1:1000) and anti-mouse IgG horseradish peroxidase (HRP)-conjugated antibody (1:750) was added and incubated overnight (4° C.). For the anti-acetyl lysine cytoblot (AcLysine), 40 μl/well of fixation solution (95% ethanol/5% acetic acid, −20° C.) was added and plates incubated for five minutes at room temperature. Wells were aspirated, washed, and blocked in ADB as for the AcTubulin protocol. After aspirating, 20 μl/well of ADB containing anti-acetylated lysine (rabbit; 1:375) and anti-rabbit IgG-HRP conjugated antibody (1:750) was added and incubated overnight (4° C.). For the anti-acetylated histone H3 (AcHistH3) and anti-acetylated histone H4 (AcHistH4) cytoblots, cells were fixed, washed, and blocked in ADB as for the AcLysine cytoblot. After aspirating, 20 μl/well of ADB containing anti-acetylated histone H3 antibody (rabbit, 1:500) or anti-acetylated histone H4 antibody (rabbit, 1:500) was added and incubated for two hours at room temperature. Wells were aspirated and washed twice with 80 μl of ADB. After aspirating, 20 μl/well of ADB containing anti-rabbit IgG-HRP conjugated antibody (1:1000) was added and incubated for two hours (room temperature). For the AcTubulin and AcLysine assays, plates were washed three times with TBS before adding 20 μl/well of enhanced chemiluminescent (ECL) mixture. For the AcHistH3 and AcHistH4 assays, plates were washed three times with 80 μl TBS with 1% Triton X-100 and once with 80 μl TBS before adding 20 μl/well of ECL mixture. Plates were read on an Analyst plate reader (LJL Biosystems) with an integration time of 0.1 seconds.
(§2) 1,3-dioxanes from single polystyrene macrobeads were prepared as 1-2 mM stock solutions in DMSO as described [Hubbert, C., Guardiola, A., Shao, R., Kawaguchi, Y., Ito, A., Nixon, A., Yoshida, M., Wang, X. F., and Yao, T. P. (2002). HDAC6 is a microtubule-associated deacetylase. Nature 417, 455-458]. Bead decoding and structure determination were as described [See for example, Hubbert, C., Guardiola, A., Shao, R., Kawaguchi, Y., Ito, A., Nixon, A., Yoshida, M., Wang, X. F., and Yao, T. P. (2002). HDAC6 is a microtubule-associated deacetylase. Nature 417, 455-458; and Piperno, G., LeDizet, M., and Chang, X. J. (1987). Microtubules containing acetylated alpha-tubulin in mammalian cells in culture. J. Cell Biol. 104, 289-302]. Small molecules (˜2-5 μM) of interest were retested using a sample from the plate of stock solutions by fluorescence microscopy and comparison to the effects of trichostatin (300 nM to 1 μM).
(§3) A549 cells were seeded at a density of 50,000/200 μl in DMEM+ on the surface of glass coverslips on top of Parafilm in a 10 cm dish and allowed to attach overnight. For detection of acetylated α-tubulin, cells were permeabilized and fixed with 100 mM K-PIPES, pH 6.8, 10 mM EGTA, 1 mM MgCl2, 0.2% triton X-100, 0.2% glutaraldehyde for fifteen minutes. […]

[2] = system: histone deacetylation; assay: acetylated lysine / acetylated histone in cells (AcLysine cytoblot, immunofluorescence, Western blot); assay type: cell-based, human; settings: A549 (also BS-C-1) cells, tubacin, niltubacin 2 μM, histacin 20 μM, library ~2-5 μM, 18 h
Protocol: as §1, §2, §3

[3] = system: α-tubulin acetylation in the presence of ITSA1; assay: ITSA1+AcTubulin assay: suppression of induced acetylation by ITSA1; assay type: cell-based, human; settings: ITSA1 50 μM, A549 cells
Protocol: A549 cells were seeded at a density of 4,000 cells/50 μl in DMEM+ in white tissue culture-treated 384-well plates (Nalge Nunc) using a Multidrop 384 liquid dispenser (Labsystems). Library small molecules were pinned twice (100-150 nl/pin) from ˜1 mM stock solutions (DMSO) and incubated for 18 hours. For the ITSA1+AcTubulin assay, ITSA1 (50 μM) was added four hours after pin-transfer of library molecules. Media was aspirated with a 16-channel wand. […] Plates were read on an Analyst plate reader (LJL Biosystems) with an integration time of 0.1 seconds.
Bromodeoxyuridine labeling and fluorescence-activated cell sorting (FACS) were performed as described (K. M. Koeller et al., Chemistry & Biology, 10 (5) (2003) pp. 397-410). […]

[4] = system: microtubules in A549 cells; assay: microtubule stability to nocodazole, cold or calcium depolymerization and repolymerization; assay type: cell-based, human; settings: tubacin 2 μM, ITSA1 50 μM
Protocol: Detection of acetylated α-tubulin and acetylated histones by immunofluorescence was performed as described in Example 6 above. For determining microtubule stability, A549 cells were treated as indicated, fixed in glutaraldehyde, and stained for acetylated α-tubulin and total α-tubulin in antibody dilution buffer (ADB, Tris-buffered saline (TBS), 0.15 M NaCl, 0.02 M Tris-Cl, pH 7.4, with 2% bovine serum albumin and 0.1% Triton-X 100). For cold-depolymerization, cells were incubated at 4° C. or 37° C. for an additional 90 minutes before fixation. For calcium depolymerization, cells were incubated at 37° C. for 10 minutes in a microtubule-stabilizing buffer (0.2% NP-40, 5 mM MgCl2, 2 mM EGTA, 2 M glycerol, 100 mM PIPES, pH 6.8) with and without the addition of CaCl2 (2 mM) before glutaraldehyde fixation. For co-localization experiments, biotubacin (50 μM) treated A549 cells were fixed in 3.7% formaldehyde in TBS and processed as for detecting acetylated α-tubulin (See Example 6 above) with biotubacin detected using streptavidin-TR (1:500). HDAC6 was detected using a rabbit polyclonal antibody (1:250-1:750; C.M.G., unpublished data) under the conditions used to detect acetylated α-tubulin (See Example 6 above). Filamentous actin in HT-1080 cells was detected using TR-conjugated phalloidin (1 μg/mL), and depolymerized actin using FITC-conjugated deoxyribonuclease (10 μg/mL), following fixation in 3.7% formaldehyde in TBS. p58 (1:100) in NIH-3T3 cells was detected after fixation in 3.7% formaldehyde in TBS. Images for these experiments were collected on a Zeiss LSM510 confocal scanning laser microscope at the appropriate wavelengths using the accompanying software and processed with Adobe Photoshop. Deconvoluted serial images of TSA and DMSO treated A549 cells were obtained by taking sections (8μ) on a Zeiss Axioskop 2 microscope using an AxioCam camera and the accompanying software. Rat hippocampal neuronal cultures were fixed at room temperature for 15 min in phosphate-buffered saline (PBS) containing 4% paraformaldehyde. […]

[5] = system: α-tubulin acetylation in the presence of ITSA1; settings: cited from earlier work
[6] = system: zebrafish (Danio rerio) embryos; assay: phenotypic assay with 16-cell zebrafish embryos; assay type: in vivo; settings: 60 μM, 18 h (24 h in FIG. 22B) post-fertilization
Protocol: To determine the effect of these compounds on whole organism development, a phenotypic assay was performed using 16-cell zebrafish (Danio rerio) embryos (Stockwell et al. Chem. Biol. 1999, 6, 71-83) with 1300 compounds from the 1,3-dioxane library. […] The folded notochord phenotype has also been observed through genetic mutant screens^32 for the gul^m208 and lev^m531 mutations. The 1,3-diol (13) may target these gene products or other proteins involved in the same biological pathway. Dissection of the pathways involved in notochord development may be complemented by small molecule ligands for proteins in those pathways.

Nc1ccccc1NC(=O)CCCCCC(=O)Nc1cccc([C@@H]2O[C@H](CN3CCN(Cc4ccccc4)CC3)C[C@H](c3ccc(CO)cc3)O2)c1 [histacin]
effect on tubulin deacetylation / α-tubulin acetylation in cells [1]: without affecting α-tubulin acetylation levels | effect on tubulin deacetylation / α-tubulin acetylation in cells ([1]; listed as 410 F1): no effect on α-tubulin acetylation | effect on histone deacetylation / lysine or histone acetylation in cells [2]: increased acetylated histone levels | effect on histone deacetylation / lysine or histone acetylation in cells ([2]; listed as 410 F1): strongly increased lysine acetylation | suppression of the induced acetylation by ITSA1 [3]: cannot be suppressed by ITSA1

O=C(c1ccc(Cl)cc1Cl)n1nnc2ccccc21 [ITSA1, reference compound]
polymerization of microtubules after removal of nocodazole [4]: neither tubacin nor ITSA1 (50 μM; 30 minutes) prevents the repolymerization of microtubules; also recorded: neither tubacin nor ITSA1 prevented the polymerization of microtubules | suppression by ITSA1, stated as known [5]: suppresses (reduces) the ability of TSA to increase acetylation levels of both α-tubulin and histones

[O-][n+]1ccccc1SC[C@@H](O)[C@@H](c1ccccc1)[C@@H](O)c1ccc(CO)cc1 (racemic) [compound 13, (±)-(1R,2S,3S)-1-[4-(hydroxymethyl)phenyl]-4-[(1-oxido-2-pyridinyl)thio]-2-phenyl-1,3-butanediol]
developmental phenotype of zebrafish embryos [6]: causes a wavy notochord phenotype; also recorded: developed folds in the anterior trunk region of the notochord

— patent US8178579B2, “Dioxanes and uses thereof” (President and Fellows of Harvard College, priority 2001, dated 2012)
